Key:
Test in all cases: KinaseProfiler off-target kinase profiling
Assay type in all cases: biochemical
Conditions in all cases: 10 μM, ATP near Km
mTOR/FKBP12 = biological target: T1, mTOR/FKBP12 (Homo sapiens, UniProt P42345)
T1 construct: purchased Millipore, Inc. (KinaseProfiler service)
Outline: (§1)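 Duplicate single-concentration (10 μM) inhibition measurements at Km-level ATP, expressed as averaged percent of control activity.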

PRKG1alpha = biological target: T2, PRKG1alpha (Homo sapiens, UniProt Q13976)
T2 construct: purchased Millipore (KinaseProfiler service)
Outline: as §1

p38gamma = biological target: T3, p38gamma (Homo sapiens, UniProt P53778)
T3 construct: purchased Millipore, Inc. (KinaseProfiler service)
Outline: as §1

Mer = biological target: T4, Mer (Homo sapiens, UniProt Q12866)
T4 construct: purchased Millipore, Inc. (KinaseProfiler service)
Outline: as §1

Haspin = biological target: T5, Haspin (Homo sapiens, UniProt Q8TF76)
T5 construct: purchased Millipore, Inc. (KinaseProfiler service)
T5 sequence (Q8TF76 whole entry): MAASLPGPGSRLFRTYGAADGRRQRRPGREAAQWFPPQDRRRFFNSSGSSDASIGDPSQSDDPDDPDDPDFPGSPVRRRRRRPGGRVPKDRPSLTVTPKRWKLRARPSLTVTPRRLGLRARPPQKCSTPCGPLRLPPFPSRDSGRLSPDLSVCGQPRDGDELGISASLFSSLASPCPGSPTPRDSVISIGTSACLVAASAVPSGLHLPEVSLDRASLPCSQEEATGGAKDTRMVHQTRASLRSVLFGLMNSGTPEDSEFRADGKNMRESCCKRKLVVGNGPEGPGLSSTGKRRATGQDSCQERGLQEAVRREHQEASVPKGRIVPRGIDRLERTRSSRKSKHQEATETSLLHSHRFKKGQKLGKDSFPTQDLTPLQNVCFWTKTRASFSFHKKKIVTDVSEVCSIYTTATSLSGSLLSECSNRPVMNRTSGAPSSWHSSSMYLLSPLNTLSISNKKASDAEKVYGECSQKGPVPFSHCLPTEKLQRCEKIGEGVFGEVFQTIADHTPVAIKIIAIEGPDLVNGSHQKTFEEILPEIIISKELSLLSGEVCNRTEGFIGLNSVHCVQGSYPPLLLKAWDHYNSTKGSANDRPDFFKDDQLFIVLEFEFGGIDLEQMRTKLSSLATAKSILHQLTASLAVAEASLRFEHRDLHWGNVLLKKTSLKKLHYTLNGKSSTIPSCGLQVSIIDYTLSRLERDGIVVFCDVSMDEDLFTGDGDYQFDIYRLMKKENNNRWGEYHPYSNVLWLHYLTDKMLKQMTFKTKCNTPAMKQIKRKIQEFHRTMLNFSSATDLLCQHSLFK
Outline: as §1

PKCbetaII = biological target: T6, PKCbetaII (Homo sapiens, UniProt P05771)
T6 construct: purchased Millipore, Inc. (KinaseProfiler service)
Outline: as §1

Plk1 = biological target: T7, Plk1 (Homo sapiens, UniProt P53350)
T7 construct: purchased Millipore (KinaseProfiler service)
T7 sequence (P53350 whole entry): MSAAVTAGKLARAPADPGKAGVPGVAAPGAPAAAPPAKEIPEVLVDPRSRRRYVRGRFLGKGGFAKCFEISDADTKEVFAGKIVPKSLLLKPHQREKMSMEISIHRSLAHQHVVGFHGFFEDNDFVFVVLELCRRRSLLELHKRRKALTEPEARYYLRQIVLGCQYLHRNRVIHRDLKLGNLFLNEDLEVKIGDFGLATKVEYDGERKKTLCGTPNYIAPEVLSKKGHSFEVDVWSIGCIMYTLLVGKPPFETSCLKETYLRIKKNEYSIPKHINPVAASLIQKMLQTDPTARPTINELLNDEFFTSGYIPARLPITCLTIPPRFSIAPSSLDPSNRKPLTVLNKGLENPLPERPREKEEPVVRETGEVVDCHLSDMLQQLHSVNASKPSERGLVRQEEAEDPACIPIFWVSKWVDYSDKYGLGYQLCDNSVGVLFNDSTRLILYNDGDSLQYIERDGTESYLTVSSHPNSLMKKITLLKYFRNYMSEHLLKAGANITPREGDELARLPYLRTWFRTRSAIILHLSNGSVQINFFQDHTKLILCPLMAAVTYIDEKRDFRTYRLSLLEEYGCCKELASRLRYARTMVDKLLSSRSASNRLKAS
Outline: as §1

Abl = biological target: T8, Abl (Homo sapiens, UniProt P00519)
T8 construct: purchased Millipore, Inc. (KinaseProfiler service)
Outline: as §1

MARK1 = biological target: T9, MARK1 (Homo sapiens, UniProt Q9P0L2)
T9 construct: purchased Millipore, Inc. (KinaseProfiler service)
Outline: as §1

EphA8 = biological target: T10, EphA8 (Homo sapiens, UniProt P29322)
T10 construct: purchased Millipore, Inc. (KinaseProfiler service)
Outline: as §1

MAP3K5 = biological target: T11, MAP3K5 (Homo sapiens, UniProt Q99683)
T11 construct: purchased Millipore, Inc. (KinaseProfiler service)
Outline: as §1

TSSK1 = biological target: T12, TSSK1 (Homo sapiens, UniProt Q9BXA7)
T12 construct: purchased Millipore, Inc. (KinaseProfiler service)
Outline: as §1

TLK2 = biological target: T13, TLK2 (Homo sapiens, UniProt Q86UE8)
T13 construct: purchased Millipore, Inc. (KinaseProfiler service)
T13 sequence (Q86UE8 whole entry): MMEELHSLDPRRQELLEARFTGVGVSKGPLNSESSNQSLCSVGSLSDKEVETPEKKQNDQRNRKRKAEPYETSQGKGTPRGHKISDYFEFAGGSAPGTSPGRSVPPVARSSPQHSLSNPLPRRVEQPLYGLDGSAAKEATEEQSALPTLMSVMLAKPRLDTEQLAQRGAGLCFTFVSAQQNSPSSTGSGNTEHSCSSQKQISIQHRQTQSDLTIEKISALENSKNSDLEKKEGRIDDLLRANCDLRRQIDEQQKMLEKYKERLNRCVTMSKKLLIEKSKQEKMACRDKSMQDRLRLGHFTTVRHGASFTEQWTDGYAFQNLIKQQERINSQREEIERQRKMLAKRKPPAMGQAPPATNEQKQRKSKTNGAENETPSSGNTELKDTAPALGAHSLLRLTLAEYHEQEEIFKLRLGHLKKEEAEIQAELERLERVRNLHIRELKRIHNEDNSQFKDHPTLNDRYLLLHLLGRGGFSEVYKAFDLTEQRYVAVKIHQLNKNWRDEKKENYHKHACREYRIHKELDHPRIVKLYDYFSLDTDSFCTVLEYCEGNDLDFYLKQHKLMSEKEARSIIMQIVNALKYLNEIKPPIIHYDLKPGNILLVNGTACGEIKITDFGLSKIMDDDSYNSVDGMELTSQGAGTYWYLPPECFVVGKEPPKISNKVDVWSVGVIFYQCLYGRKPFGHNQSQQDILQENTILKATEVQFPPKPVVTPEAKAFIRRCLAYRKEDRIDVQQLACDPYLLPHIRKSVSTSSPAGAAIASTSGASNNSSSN
Outline: as §1

FGFR4 = biological target: T14, FGFR4 (Homo sapiens, UniProt P22455)
T14 construct: purchased Millipore, Inc. (KinaseProfiler service)
Outline: as §1

Lyn = biological target: T15, Lyn (Homo sapiens, UniProt P07948)
T15 construct: purchased Millipore, Inc. (KinaseProfiler service)
Outline: as §1

EphA4 = biological target: T16, EphA4 (Homo sapiens, UniProt P54764)
T16 construct: purchased Millipore, Inc. (KinaseProfiler service)
Outline: as §1

Fms = biological target: T17, Fms (Homo sapiens, UniProt P07333)
T17 construct: purchased Millipore, Inc. (KinaseProfiler service)
Outline: as §1

MRCKbeta = biological target: T18, MRCKbeta (Homo sapiens, UniProt Q9Y5S2)
T18 construct: purchased Millipore, Inc. (KinaseProfiler service)
Outline: as §1

CAMK1d = biological target: T19, CAMK1d (Homo sapiens, UniProt Q8IU85)
T19 construct: purchased Millipore, Inc. (KinaseProfiler service)
Outline: as §1

PTK5 = biological target: T20, PTK5 (Homo sapiens, UniProt P42685)
T20 construct: purchased Millipore (KinaseProfiler service)
T20 sequence (P42685 whole entry): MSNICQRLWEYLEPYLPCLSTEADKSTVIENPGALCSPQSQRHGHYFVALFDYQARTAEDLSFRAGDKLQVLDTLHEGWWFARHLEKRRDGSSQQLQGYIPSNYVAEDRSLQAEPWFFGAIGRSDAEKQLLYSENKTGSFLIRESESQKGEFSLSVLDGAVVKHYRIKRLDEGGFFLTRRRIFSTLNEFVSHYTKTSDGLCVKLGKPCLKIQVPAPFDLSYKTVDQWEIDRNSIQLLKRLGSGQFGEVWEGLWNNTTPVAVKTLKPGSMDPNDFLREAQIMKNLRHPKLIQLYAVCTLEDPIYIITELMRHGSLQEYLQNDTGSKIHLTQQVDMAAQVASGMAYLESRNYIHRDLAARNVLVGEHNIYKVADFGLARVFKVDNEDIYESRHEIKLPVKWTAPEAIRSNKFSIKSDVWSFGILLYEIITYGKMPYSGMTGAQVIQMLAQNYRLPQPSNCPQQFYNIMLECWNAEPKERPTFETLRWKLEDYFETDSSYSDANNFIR
Outline: as §1

Rse = biological target: T21, Rse (Homo sapiens, UniProt Q06418)
T21 construct: purchased Millipore (KinaseProfiler service)
Outline: as §1

CDK2/cyclinE = biological target: T22, CDK2/cyclinE (Homo sapiens, UniProt P24941)
T22 construct: purchased Millipore, Inc. (KinaseProfiler service)
Outline: as §1

Met = biological target: T23, Met (Homo sapiens, UniProt P08581)
T23 construct: purchased Millipore, Inc. (KinaseProfiler service)
Outline: as §1

Ros = biological target: T24, Ros (Homo sapiens, UniProt P08922)
T24 construct: purchased Millipore (KinaseProfiler service)
Outline: as §1

EphA2 = biological target: T25, EphA2 (Homo sapiens, UniProt P29317)
T25 construct: purchased Millipore, Inc. (KinaseProfiler service)
T25 sequence (P29317 24-976): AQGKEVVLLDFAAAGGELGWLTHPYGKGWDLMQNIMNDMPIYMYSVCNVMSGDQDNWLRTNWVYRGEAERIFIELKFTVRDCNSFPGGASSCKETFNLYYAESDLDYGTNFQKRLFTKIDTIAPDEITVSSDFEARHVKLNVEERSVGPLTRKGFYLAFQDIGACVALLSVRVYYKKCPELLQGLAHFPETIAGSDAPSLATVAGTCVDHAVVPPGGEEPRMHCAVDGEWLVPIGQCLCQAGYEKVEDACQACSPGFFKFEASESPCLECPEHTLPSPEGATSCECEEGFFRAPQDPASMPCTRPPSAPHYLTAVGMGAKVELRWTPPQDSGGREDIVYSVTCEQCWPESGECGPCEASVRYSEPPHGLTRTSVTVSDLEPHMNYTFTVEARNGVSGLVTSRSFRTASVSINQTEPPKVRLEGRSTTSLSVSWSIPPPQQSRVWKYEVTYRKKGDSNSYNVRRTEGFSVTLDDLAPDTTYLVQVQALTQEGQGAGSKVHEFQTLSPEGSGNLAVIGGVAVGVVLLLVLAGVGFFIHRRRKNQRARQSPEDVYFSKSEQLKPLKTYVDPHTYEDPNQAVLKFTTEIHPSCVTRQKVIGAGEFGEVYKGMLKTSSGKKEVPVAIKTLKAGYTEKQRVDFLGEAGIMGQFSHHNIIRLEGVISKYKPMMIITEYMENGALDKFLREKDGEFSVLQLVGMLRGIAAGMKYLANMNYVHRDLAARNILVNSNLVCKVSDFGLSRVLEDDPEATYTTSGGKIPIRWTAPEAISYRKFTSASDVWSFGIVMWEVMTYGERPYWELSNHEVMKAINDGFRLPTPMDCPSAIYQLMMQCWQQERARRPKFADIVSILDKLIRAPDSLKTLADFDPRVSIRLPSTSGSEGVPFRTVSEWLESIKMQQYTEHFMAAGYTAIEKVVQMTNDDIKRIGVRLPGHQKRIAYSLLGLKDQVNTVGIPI
Outline: as §1

SGK3 = biological target: T26, SGK3 (Homo sapiens, UniProt Q96BR1)
T26 construct: purchased Millipore, Inc. (KinaseProfiler service)
Outline: as §1

NEK6 = biological target: T27, NEK6 (Homo sapiens, UniProt Q9HC98)
T27 construct: purchased Millipore, Inc. (KinaseProfiler service)
Outline: as §1

CDK5/p35 = biological target: T28, CDK5/p35 (Homo sapiens, UniProt Q00535)
T28 construct: purchased Millipore, Inc. (KinaseProfiler service)
Outline: as §1

MKK6 = biological target: T29, MKK6 (Homo sapiens, UniProt P52564)
T29 construct: purchased Millipore, Inc. (KinaseProfiler service)
Outline: as §1

IRAK1 = biological target: T30, IRAK1 (Homo sapiens, UniProt P51617)
T30 construct: purchased Millipore, Inc. (KinaseProfiler service)
Outline: as §1

PAK3 = biological target: T31, PAK3 (Homo sapiens, UniProt O75914)
T31 construct: purchased Millipore, Inc. (KinaseProfiler service)
T31 sequence (O75914 whole entry): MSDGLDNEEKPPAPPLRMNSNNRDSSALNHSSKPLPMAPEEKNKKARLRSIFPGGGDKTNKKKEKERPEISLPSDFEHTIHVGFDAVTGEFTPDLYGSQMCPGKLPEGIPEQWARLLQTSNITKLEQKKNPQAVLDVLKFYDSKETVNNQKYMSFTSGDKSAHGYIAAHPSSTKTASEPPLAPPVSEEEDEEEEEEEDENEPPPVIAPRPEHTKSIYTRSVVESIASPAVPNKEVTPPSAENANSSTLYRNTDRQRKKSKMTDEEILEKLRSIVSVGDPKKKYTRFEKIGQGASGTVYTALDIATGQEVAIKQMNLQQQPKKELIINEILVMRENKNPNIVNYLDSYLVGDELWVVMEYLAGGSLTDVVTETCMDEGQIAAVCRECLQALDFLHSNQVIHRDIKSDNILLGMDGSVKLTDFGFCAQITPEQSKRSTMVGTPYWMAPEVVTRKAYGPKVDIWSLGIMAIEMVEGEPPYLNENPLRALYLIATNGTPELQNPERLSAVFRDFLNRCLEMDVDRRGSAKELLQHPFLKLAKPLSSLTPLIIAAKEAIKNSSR
Outline: as §1

IRAK4 = biological target: T32, IRAK4 (Homo sapiens, UniProt Q9NWZ3)
T32 construct: purchased Millipore, Inc. (KinaseProfiler service)
T32 sequence (Q9NWZ3 whole entry): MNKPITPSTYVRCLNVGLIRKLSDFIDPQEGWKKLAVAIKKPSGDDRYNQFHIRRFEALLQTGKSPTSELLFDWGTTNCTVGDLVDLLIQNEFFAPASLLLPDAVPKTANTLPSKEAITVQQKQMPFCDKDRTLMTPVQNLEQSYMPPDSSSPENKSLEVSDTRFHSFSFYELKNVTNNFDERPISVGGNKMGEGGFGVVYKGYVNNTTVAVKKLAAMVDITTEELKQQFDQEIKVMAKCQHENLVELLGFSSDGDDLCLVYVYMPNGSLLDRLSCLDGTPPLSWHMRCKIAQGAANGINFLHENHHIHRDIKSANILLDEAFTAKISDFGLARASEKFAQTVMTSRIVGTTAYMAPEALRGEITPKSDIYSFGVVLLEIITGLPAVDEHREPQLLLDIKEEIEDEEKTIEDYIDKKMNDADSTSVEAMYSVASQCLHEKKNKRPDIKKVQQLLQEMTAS
Outline: as §1

FGFR1 = biological target: T33, FGFR1 (Homo sapiens, UniProt P11362)
T33 construct: purchased Millipore, Inc. (KinaseProfiler service)
Outline: as §1

DYRK2 = biological target: T34, DYRK2 (Homo sapiens, UniProt Q92630)
T34 construct: purchased Millipore, Inc. (KinaseProfiler service)
Outline: as §1

CK2alpha2 = biological target: T35, CK2alpha2 (Homo sapiens, UniProt P19784)
T35 construct: purchased Millipore, Inc. (KinaseProfiler service)
T35 sequence (P19784 whole entry): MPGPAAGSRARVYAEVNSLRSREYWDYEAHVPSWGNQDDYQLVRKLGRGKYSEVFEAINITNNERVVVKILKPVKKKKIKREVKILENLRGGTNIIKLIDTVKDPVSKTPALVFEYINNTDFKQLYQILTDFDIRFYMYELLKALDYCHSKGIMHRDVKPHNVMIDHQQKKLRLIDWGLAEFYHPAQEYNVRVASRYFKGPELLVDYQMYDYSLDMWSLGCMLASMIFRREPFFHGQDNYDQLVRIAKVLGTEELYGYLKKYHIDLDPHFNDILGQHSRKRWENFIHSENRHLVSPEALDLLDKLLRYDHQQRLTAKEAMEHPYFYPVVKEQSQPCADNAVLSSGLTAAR
Outline: as §1

PKCbetaI = biological target: T36, PKCbetaI (Homo sapiens, UniProt P05771)
T36 construct: purchased Millipore, Inc. (KinaseProfiler service)
Outline: as §1

PRKG1beta = biological target: T37, PRKG1beta (Homo sapiens, UniProt Q13976)
T37 construct: purchased Millipore (KinaseProfiler service)
Outline: as §1

IKKalpha = biological target: T38, IKKalpha (Homo sapiens, UniProt O15111)
T38 construct: purchased Millipore, Inc. (KinaseProfiler service)
Outline: as §1

BTK = biological target: T39, BTK (Homo sapiens, UniProt Q06187)
T39 construct: purchased Millipore, Inc. (KinaseProfiler service)
Outline: as §1

ITK = biological target: T40, ITK (Homo sapiens, UniProt Q08881)
T40 construct: purchased Millipore, Inc. (KinaseProfiler service)
Outline: as §1

Rsk1 = biological target: T41, Rsk1 (Homo sapiens, UniProt Q15418)
T41 construct: purchased Millipore (KinaseProfiler service)
Outline: as §1

COCCN1C[C@@H](NC(=O)Nc2c(-c3ccccc3)nc3c(C)nccn23)[C@H](c2ccc(F)c(F)c2)C1 [Example 20, 1-((3S,4R)-4-(3,4-difluorophenyl)-1-(2-methoxyethyl)pyrrolidin-3-yl)-3-(8-methyl-2-phenylimidazo[1,2-a]pyrazin-3-yl)urea]
Avg. POC (mTOR/FKBP12): 110.5 POC
Avg. POC (PRKG1alpha): 111.5 POC
Avg. POC (p38gamma): 105.5 POC
Avg. POC (Mer): 116.5 POC
Avg. POC (Haspin): 93.5 POC
Avg. POC (PKCbetaII): 106 POC
Avg. POC (Plk1): 104 POC
Avg. POC (Abl): 114 POC
Avg. POC (MARK1): 103.5 POC
Avg. POC (EphA8): 98.5 POC
Avg. POC (MAP3K5): 88 POC
Avg. POC (TSSK1): 107 POC
Avg. POC (TLK2): 105 POC
Avg. POC (FGFR4): 90 POC
Avg. POC (Lyn): 104.5 POC
Avg. POC (EphA4): 106 POC
Avg. POC (Fms): 87.5 POC
Avg. POC (MRCKbeta): 118.5 POC
Avg. POC (CAMK1d): 107.5 POC
Avg. POC (PTK5): 111 POC
Avg. POC (Rse): 102.5 POC
Avg. POC (CDK2/cyclinE): 118.5 POC
Avg. POC (Met): 110 POC
Avg. POC (Ros): 95.5 POC
Avg. POC (EphA2): 107.5 POC
Avg. POC (SGK3): 109 POC
Avg. POC (NEK6): 92.5 POC
Avg. POC (CDK5/p35): 121 POC
Avg. POC (MKK6): 83 POC
Avg. POC (IRAK1): 109.5 POC
Avg. POC (PAK3): 219.5 POC
Avg. POC (IRAK4): 124 POC
Avg. POC (FGFR1): 102 POC
Avg. POC (DYRK2): 85.5 POC
Avg. POC (CK2alpha2): 104 POC
Avg. POC (PKCbetaI): 101 POC
Avg. POC (PRKG1beta): 124 POC
Avg. POC (IKKalpha): 121 POC
Avg. POC (BTK): 112.5 POC
Avg. POC (ITK): 122.5 POC
Avg. POC (Rsk1): 115 POC
